Assay results from US8415469B2, “Compounds and methods for kinase modulation, and indications therefor” (Plexxikon Inc., priority 2005, dated 2013).

Key:
Assay type in all cases: biochemical
Abl = biological target: T1, Abl (Homo sapiens, UniProt P00519); experiment: AlphaScreen kinase assay, Abl; conditions: read-out: activity toward kinase Abl, IC50
T1 construct: P1121. pET-SPEC BI-PTP Abl G227-V515-X; His6 (N); made in house; host or cells: E. coli (PTP1B co-expressed)
T1 sequence (P00519 with tags, fused parts or gaps): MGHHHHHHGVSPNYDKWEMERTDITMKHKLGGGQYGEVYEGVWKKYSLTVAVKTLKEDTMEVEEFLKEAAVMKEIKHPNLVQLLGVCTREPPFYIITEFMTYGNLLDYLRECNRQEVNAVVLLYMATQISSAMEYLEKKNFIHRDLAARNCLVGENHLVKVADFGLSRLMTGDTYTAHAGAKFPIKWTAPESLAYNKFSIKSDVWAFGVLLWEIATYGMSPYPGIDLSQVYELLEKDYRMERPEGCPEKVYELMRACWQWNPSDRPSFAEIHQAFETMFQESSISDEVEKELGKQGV
How it was run: (§1)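 Compounds in DMSO (20 mM stock) were diluted 1:3 across 8 points. Each kinase phosphorylated a biotin-labelled peptide. Signal generated when donor and acceptor beads came close via antibody binding of phosphorylated substrate.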

Kdr = biological target: T2, Kdr (Homo sapiens, UniProt P35968); experiment: Z'-Lyte FRET kinase assay (Invitrogen), Kdr; conditions: read-out: IC50, activity toward kinase Kdr
T2 construct: purchased Invitrogen (assay run by Invitrogen)
Source text: For example, direct radiometric, indirect FRET or AlphaScreen assays may be used to assess the level of phosphorylation of a substrate in the presence of test compounds in order to determine the inhibitory affect of the compound on the kinase. […] For these assays, compounds of the invention were screened by Invitrogen using Z′-Lyte™ kinase assay.
Briefly, the Invitrogen kinase assay involves use of a specific peptide substrate optimized for each kinase, containing a fluorophore at each end that make up the FRET pair. The peptide sensitivity to proteolytic cleavage depends on phosphorylation of the peptide. Non-phosphorylated peptide is cleaved by a protease while peptide phosphorylated by the kinase is not cleaved. Cleavage of the peptide disrupts the FRET between the donor (coumarin) and acceptor (fluorescein) fluorophores, resulting in an increase in the ratio of donor emission to acceptor emission. The emission ratio of coumarin to fluorescein is used to assess the reaction progress. […] Thus, the assay involves a kinase reaction in the presence of varying concentrations of a given compound, a development reaction with site specific protease, and detection of the fluorescent emission ratio of coumarin and fluorscein. […] Reaction conditions for each kinase are determined to provide optimal reaction times, incubation temperature, kinase and ATP concentrations. Test samples are made up in 1× kinase buffer (50 mM HEPES pH 7.5, 50 mM MgCl2, 5 mM EGTA, 0.05% BRIJ-35) and compound at desired concentration prepared in DMSO such that the final DMSO is 1%. […] All kinase except for MAP2K1 were at 10 μM ATP in the kinase reaction, while MAP2K1 was at 100 μM. Samples are mixed and the kinase reaction is incubated 1 hour at room temperature, after which 5 μl of development solution is added and mixed. After incubation for another 1 hour at room temperature, 5 μl of stop reagent is added to each sample and mixed. The fluorescence signals are measured to determine the emission ratio.

Stk6 = biological target: T3, Stk6 (Homo sapiens, UniProt O14965); experiment: Z'-Lyte FRET kinase assay (Invitrogen), Stk6; conditions: read-out: IC50, activity toward kinase Stk6
T3 construct: purchased Invitrogen (Carlsbad, Calif.), screening service
T3 sequence (O14965 1-403): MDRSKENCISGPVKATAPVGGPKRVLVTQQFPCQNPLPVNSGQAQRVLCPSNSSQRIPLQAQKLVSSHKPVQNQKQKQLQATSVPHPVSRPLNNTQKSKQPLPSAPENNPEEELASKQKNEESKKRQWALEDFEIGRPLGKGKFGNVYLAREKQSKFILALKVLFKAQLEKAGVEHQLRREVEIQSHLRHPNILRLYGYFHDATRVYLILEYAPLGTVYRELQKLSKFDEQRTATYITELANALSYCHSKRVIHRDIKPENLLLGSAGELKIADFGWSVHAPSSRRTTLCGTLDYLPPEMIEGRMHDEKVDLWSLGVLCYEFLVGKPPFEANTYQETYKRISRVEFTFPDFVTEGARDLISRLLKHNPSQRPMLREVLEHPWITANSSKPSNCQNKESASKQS

Gsk3β = Gsk3β (Homo sapiens, UniProt P49841); experiment: AlphaScreen kinase assay, Gsk3β; conditions: read-out: IC50, activity toward kinase Gsk3β
Source text: AlphaScreen assay was used to screen additional kinases. The assay is similarly dependent on the phosphorylation of a peptide substrate. In this assay, an antibody that recognizes phosphorylated substrate is bound to an acceptor bead. The peptide substrate is attached to biotin, which binds to a donor head that contains streptavidin. Thus phosphorylated substrate is bound by antibody and streptavidin, bringing the donor and acceptor heads into close proximity when kinase is not inhibited. The donor produces singlet oxygen which results in emission from the acceptor when they are in close proximity. Conversely, when kinase is inhibited, the donor and acceptor beads are not associated and the emission from the acceptor is reduced.
AlphaScreen assays were done using compounds dissolved in DMSO to a concentration of 20 mM. The compounds were diluted accordingly to the desired final concentrations in each sample well, using 1:3 serial dilution for a total of 8 concentration points.

B-Raf = biological target: T4, B-Raf (Homo sapiens, UniProt P15056); experiment: AlphaScreen kinase assay, B-Raf; conditions: read-out: IC50, activity toward kinase B-Raf
T4 construct: purchased Upstate Biotechnology

B-Raf V600E = biological target: T5, B-Raf V600E (Homo sapiens, UniProt P15056, V600E); experiment: AlphaScreen kinase assay, B-Raf V600E; conditions: read-out: IC50, activity toward kinase B-Raf V600E
T5 construct: P4254. pFastBacBD-CDC37 BRAF D437-K722-X, V600E; His6 with pFastBac HT leader (TEV site) (N); made in house; host or cells: Sf9 (baculovirus; chaperone CDC37 co-expressed)

c-Raf-1 = biological target: T6, c-Raf-1 (Homo sapiens, UniProt P04049); experiment: AlphaScreen kinase assay, c-Raf-1; conditions: read-out: IC50, activity toward kinase c-Raf-1
T6 construct: purchased Upstate Biotechnology

FGFR1 = biological target: T7, FGFR1 (Homo sapiens, UniProt P11362, C488A/C584S); experiment: AlphaScreen kinase assay, FGFR1; conditions: read-out: IC50, activity toward kinase FGFR
T7 construct: P1351.pET N6 BI-PTP FGFR A458-E765-X C488A, C584S; made in house; host or cells: E. coli (PTP1B co-expressed)

Jnk1 = biological target: T8, Jnk1 (Homo sapiens, UniProt P45983); experiment: AlphaScreen kinase assay, Jnk1; conditions: read-out: IC50, activity toward kinase Jnk1
T8 construct: purchased Upstate Biotechnology

Pyk2 = biological target: T9, Pyk2 (Homo sapiens, UniProt Q14289); experiment: AlphaScreen kinase assay, Pyk2; conditions: read-out: IC50, activity toward kinase Pyk2
T9 construct: purchased Upstate Biotechnology

Ret = biological target: T10, Ret (Homo sapiens, UniProt P07949); experiment: AlphaScreen kinase assay, Ret; conditions: read-out: IC50, activity toward kinase Ret
T10 construct: P1378.pET-SF BI-PTP RET H661-R1012 HIS; made in house
T10 sequence (P07949 with tags, fused parts or gaps): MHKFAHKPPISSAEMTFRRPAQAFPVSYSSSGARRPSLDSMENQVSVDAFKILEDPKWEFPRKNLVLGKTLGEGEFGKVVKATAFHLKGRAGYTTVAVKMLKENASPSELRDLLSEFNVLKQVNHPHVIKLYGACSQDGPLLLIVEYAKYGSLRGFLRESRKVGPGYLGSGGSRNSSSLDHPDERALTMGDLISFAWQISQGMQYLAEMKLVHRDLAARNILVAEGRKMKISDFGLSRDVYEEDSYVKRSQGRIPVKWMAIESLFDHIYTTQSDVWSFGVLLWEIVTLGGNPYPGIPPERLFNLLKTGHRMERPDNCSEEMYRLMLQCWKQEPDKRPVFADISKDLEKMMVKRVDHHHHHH

MAP4K4 = MAP4K4 (Homo sapiens, UniProt O95819); experiment: AlphaScreen kinase assay, MAP4K4; conditions: read-out: IC50, activity toward kinase MAP4K4
Method: AlphaScreen assays were done using compounds dissolved in DMSO to a concentration of 20 mM. The compounds were diluted accordingly to the desired final concentrations in each sample well, using 1:3 serial dilution for a total of 8 concentration points. Plates were prepared such that each kinase reaction is 20 μl in 1× kinase buffer, 5% DMSO and 10 μM ATP. After incubation of the kinase reaction for 1 hour at room temperature, 5 μl of donor beads in stop buffer (50 mM EDTA in 1× kinase buffer) was added, the sample was mixed and incubated for 20 minutes at room temperature before adding 5 μl of acceptor beads in stop buffer. The samples were incubated for 60 minutes at room temperature and the signal per well was read on AlphaQuest reader.

Btk = biological target: T11, Btk (Homo sapiens, UniProt Q06187); experiment: Z'-Lyte FRET kinase assay (Invitrogen), Btk; conditions: read-out: IC50, activity toward kinase Btk
T11 construct: purchased Invitrogen (assay run by Invitrogen)

Fms = biological target: T12, Fms (Homo sapiens, UniProt P07333); experiment: AlphaScreen kinase assay, Fms; conditions: read-out: IC50, activity toward kinase Fms
T12 construct: purchased Upstate Biotechnology

Jnk3 = biological target: T13, Jnk3 (Homo sapiens, UniProt P53779); experiment: AlphaScreen kinase assay, Jnk3; conditions: read-out: IC50, activity toward kinase Jnk3
T13 construct: purchased Upstate Biotechnology

Kit = biological target: T14, Kit (Homo sapiens, UniProt P10721); experiment: AlphaScreen kinase assay, Kit; conditions: read-out: IC50, activity toward kinase Kit
T14 construct: P1332.N6 BI PTP KIT M552-K948-X COD; His6 (N); made in house; host or cells: E. coli (PTP1B co-expressed)

Met = biological target: T15, Met (Homo sapiens, UniProt P08581); experiment: AlphaScreen kinase assay, Met; conditions: read-out: IC50, activity toward kinase Met
T15 construct: P1818.pETN6 BI-PTP MET G1056-G1364-X WT; His6 (N); made in house; host or cells: E. coli (PTP1B co-expressed)
How it was run: as §1

Src = biological target: T16, Src (Homo sapiens, UniProt P12931); experiment: AlphaScreen kinase assay, Src; conditions: read-out: IC50, activity toward kinase Src
T16 construct: P1144. pET-N6 BI-PTP SRC V86-L536-X; made in house

Flt1 = biological target: T17, Flt1 (Homo sapiens, UniProt P17948); experiment: AlphaScreen kinase assay, Flt1; conditions: read-out: IC50, activity toward kinase Flt1
T17 construct: P1826.pETN6 BI-PTP FLT1 M799-D1165-X WT; His6 (N); made in house; host or cells: E. coli (PTP1B co-expressed)
T17 sequence (P17948 with tags, fused parts or gaps): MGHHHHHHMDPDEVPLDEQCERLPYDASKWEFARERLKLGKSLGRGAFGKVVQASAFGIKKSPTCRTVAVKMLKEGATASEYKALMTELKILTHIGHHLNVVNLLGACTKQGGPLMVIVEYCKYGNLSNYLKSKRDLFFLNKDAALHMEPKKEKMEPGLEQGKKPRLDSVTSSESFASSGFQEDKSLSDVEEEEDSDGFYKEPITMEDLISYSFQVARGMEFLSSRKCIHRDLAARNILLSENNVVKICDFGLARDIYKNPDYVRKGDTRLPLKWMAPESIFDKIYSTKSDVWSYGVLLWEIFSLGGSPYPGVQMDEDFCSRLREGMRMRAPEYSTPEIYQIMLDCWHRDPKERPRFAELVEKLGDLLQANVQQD

Measured: IC50

T7 sequence (P11362 458-765 C488A/C584S): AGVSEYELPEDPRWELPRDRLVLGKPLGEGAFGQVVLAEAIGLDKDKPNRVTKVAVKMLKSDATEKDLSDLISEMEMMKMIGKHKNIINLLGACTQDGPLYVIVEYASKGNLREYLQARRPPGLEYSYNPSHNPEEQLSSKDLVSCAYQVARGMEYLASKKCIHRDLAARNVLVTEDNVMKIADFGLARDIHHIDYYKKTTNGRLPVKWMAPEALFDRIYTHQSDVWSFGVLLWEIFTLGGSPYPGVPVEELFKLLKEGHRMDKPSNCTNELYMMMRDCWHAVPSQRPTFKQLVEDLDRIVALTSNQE
T4 sequence (P15056 whole entry): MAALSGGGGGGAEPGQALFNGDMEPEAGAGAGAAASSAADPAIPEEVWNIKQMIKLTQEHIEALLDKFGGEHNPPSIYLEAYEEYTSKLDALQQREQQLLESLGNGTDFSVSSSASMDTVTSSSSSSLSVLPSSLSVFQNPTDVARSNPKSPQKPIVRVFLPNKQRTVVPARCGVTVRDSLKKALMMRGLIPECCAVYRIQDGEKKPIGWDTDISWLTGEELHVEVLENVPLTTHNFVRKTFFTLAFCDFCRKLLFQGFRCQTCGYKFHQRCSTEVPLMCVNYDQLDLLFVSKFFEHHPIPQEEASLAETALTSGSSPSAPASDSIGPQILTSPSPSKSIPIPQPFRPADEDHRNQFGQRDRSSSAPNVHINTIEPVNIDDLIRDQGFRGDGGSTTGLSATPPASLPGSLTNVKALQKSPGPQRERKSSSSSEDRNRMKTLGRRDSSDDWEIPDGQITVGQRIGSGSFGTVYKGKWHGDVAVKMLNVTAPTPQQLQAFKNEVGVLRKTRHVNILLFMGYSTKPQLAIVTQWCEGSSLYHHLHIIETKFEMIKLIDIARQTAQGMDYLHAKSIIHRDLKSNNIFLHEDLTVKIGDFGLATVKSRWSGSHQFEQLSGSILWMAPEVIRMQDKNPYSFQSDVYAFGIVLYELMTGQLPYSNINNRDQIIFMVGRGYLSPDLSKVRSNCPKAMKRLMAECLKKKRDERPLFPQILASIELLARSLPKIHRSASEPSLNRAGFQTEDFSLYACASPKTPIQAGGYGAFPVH
T12 sequence (P07333 20-972): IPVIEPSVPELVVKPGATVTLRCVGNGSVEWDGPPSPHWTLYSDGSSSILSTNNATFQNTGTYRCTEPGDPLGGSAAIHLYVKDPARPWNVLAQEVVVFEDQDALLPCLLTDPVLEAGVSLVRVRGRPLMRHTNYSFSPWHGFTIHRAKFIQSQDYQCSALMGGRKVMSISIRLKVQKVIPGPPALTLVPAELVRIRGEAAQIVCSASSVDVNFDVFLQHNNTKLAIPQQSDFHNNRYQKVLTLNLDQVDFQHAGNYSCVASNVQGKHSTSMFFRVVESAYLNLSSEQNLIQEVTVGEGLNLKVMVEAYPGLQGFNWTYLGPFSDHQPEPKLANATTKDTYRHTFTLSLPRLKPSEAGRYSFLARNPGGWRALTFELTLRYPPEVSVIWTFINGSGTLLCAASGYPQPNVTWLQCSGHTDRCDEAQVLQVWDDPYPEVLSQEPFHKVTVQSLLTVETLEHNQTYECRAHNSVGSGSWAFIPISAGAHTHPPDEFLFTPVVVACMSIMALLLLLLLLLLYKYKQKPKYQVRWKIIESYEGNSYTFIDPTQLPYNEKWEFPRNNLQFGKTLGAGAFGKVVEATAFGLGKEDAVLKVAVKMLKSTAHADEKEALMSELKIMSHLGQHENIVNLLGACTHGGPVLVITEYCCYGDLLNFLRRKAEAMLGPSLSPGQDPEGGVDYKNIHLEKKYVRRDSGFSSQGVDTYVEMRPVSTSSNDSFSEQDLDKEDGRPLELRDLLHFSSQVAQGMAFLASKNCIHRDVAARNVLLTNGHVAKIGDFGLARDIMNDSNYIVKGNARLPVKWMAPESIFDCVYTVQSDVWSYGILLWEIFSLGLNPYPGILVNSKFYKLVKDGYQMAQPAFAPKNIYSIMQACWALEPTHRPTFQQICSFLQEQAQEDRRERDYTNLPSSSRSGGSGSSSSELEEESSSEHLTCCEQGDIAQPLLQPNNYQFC
Sequence of MAP4K4 (O95819 whole entry): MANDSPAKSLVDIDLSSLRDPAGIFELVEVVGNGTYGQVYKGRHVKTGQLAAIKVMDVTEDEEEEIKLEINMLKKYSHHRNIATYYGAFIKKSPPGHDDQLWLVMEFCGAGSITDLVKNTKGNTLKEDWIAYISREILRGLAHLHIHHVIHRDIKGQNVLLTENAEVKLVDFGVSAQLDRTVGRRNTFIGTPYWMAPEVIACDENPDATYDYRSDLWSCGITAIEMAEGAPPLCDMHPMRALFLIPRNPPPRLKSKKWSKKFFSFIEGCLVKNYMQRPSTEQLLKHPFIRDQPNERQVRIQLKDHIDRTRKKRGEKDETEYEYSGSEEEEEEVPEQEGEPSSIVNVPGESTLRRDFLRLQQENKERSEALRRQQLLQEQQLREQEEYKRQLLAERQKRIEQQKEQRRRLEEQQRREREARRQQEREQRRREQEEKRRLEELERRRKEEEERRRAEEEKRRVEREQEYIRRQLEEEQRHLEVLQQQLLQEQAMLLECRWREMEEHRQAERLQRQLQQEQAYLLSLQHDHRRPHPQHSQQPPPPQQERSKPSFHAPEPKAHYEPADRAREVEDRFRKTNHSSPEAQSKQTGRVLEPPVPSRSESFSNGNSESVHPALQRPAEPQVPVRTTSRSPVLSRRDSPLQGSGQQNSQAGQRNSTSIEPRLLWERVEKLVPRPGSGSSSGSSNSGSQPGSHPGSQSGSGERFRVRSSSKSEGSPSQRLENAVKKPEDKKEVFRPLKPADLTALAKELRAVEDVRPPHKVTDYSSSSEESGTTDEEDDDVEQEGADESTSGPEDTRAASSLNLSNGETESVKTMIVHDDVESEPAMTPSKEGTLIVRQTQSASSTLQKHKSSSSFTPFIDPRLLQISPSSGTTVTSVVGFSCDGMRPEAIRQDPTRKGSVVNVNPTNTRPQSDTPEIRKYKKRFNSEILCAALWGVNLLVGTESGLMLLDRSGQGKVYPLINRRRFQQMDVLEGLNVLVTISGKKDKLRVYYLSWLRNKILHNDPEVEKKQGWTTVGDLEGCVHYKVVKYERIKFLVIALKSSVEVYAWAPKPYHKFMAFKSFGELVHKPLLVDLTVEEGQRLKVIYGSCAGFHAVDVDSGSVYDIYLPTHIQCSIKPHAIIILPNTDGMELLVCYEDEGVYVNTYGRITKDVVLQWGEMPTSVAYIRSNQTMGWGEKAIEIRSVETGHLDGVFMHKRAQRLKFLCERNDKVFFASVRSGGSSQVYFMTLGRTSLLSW
T14 sequence (P10721 with tags, fused parts or gaps): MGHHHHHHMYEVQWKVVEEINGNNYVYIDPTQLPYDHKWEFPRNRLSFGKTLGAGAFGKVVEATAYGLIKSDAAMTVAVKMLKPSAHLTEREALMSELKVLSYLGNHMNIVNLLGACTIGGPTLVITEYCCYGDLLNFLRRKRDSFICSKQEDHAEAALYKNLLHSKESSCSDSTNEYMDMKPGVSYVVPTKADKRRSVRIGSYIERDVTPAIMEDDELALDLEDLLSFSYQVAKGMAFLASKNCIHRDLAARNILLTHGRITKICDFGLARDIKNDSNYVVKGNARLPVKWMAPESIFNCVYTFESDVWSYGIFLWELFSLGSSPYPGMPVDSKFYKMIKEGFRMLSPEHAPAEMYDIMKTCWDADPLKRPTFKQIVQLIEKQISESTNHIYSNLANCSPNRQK
T5 sequence (P15056 with tags, fused parts or gaps V600E): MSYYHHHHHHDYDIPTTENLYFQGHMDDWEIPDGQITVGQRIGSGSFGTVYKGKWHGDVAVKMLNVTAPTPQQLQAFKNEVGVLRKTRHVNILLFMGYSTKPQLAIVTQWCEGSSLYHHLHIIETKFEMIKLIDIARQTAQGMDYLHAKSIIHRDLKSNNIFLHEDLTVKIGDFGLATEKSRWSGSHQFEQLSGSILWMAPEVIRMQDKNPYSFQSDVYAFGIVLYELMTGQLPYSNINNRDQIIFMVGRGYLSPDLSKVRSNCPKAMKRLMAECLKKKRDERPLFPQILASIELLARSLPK
Sequence of Gsk3β (P49841 whole entry): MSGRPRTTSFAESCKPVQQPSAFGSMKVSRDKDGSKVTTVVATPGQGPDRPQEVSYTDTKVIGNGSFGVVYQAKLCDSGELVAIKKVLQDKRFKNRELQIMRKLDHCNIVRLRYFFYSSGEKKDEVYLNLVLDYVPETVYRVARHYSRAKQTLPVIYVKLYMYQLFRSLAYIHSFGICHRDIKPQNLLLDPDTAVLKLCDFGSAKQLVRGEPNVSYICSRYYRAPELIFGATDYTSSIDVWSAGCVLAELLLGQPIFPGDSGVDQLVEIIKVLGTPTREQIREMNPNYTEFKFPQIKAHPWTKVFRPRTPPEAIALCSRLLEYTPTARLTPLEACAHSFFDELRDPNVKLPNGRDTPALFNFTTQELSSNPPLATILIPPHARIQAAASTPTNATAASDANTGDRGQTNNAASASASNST
T16 sequence (P12931 with tags, fused parts or gaps): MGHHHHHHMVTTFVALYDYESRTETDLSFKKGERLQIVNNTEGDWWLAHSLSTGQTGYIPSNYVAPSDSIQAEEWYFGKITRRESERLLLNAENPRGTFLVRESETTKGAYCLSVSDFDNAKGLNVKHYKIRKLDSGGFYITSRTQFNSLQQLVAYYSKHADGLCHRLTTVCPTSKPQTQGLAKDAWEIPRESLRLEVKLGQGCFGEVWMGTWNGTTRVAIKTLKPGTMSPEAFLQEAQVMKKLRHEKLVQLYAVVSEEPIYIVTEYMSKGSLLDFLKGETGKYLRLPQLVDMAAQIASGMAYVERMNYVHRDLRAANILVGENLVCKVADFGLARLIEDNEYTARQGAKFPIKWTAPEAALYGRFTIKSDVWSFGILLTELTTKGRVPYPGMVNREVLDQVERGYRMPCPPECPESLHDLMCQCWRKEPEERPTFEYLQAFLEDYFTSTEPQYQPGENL

S=C(NCc1ccccn1)NCc1c[nH]c2ncccc12 [Compound P-0169]
≤ 10 µM: Abl | Kdr | Stk6 | Gsk3β

CCS(=O)(=O)Nc1ccc(F)c(C(=O)c2c[nH]c3ncc(-c4cccnc4)cc23)c1F [Compound P-0728, N-[2,4-difluoro-3-(5-pyridin-3-yl-1H-pyrrolo[2,3-b]pyridine-3-carbonyl)-phenyl]-ethanesulfonamide]
≤ 10 µM: B-Raf | B-Raf V600E | c-Raf-1 | FGFR1 | Jnk1 | Pyk2 | Ret | Gsk3β | MAP4K4

Nc1ccc(F)c(C(=O)c2c[nH]c3ncc(-c4cccnc4)cc23)c1F [Compound P-0763, (3-amino-2,6-difluoro-phenyl)-(5-pyridin-3-yl-1H-pyrrolo[2,3-b]pyridin-3-yl)-methanone]
not listed: Abl | Kdr | Stk6 | Pyk2 | MAP4K4 | Flt1
≤ 10 µM: all other assays above

CCCS(=O)(=O)Nc1ccc(F)c(C(=O)c2c[nH]c3ncc(OCC)cc23)c1F [Compound P-1252, Propane-1-sulfonic acid [3-(5-ethoxy-1H-pyrrolo[2,3-b]pyridine-3-carbonyl)-2,4-difluoro-phenyl]-amide]
≤ 10 µM: B-Raf | B-Raf V600E | FGFR1 | Fms | Kit | Src | Gsk3β | MAP4K4

CN(C)c1cccc(Nc2ccc3cc[nH]c3n2)c1 [Compound P-1372, N,N-Dimethyl-N′-(1H-pyrrolo[2,3-b]pyridin-6-yl)-benzene-1,3-diamine]
≤ 10 µM: Flt1 | Fms | Jnk3 | Kit | Pyk2 | Gsk3β | MAP4K4
